Test: xn = mol fraction of the nth substance listed
Conditions: Liquid; for mass density: Vibrating tube method; for viscosity: 101 kPa, Concentric cylinders viscometry

C1CCCCC1 [cyclohexane] + CCCCO
mass density [kg/m3]
Conditions | x2 = 0.1 | x2 = 0.2 | x2 = 0.3003 | x2 = 0.4005 | x2 = 0.4997 | x2 = 0.6001 | x2 = 0.6999 | x2 = 0.7998 | x2 = 0.8999
313.15 K, 60000 kPa | – | – | – | – | – | – | – | – | 828.3
323.15 K, 100 kPa | 750.6 | 752.8 | 755.6 | 758.9 | 762.6 | 766.6 | 771.1 | 775.7 | 780.7
323.15 K, 1000 kPa | 751.6 | 753.8 | 756.6 | 759.9 | 763.5 | 767.5 | 771.9 | 776.6 | 781.6
323.15 K, 2000 kPa | 752.6 | 754.8 | 757.6 | 760.8 | 764.5 | 768.5 | 772.9 | 777.5 | 782.5
323.15 K, 5000 kPa | 755.6 | 757.8 | 760.5 | 763.7 | 767.3 | 771.3 | 775.6 | 780.1 | 785.1
323.15 K, 10000 kPa | 760.3 | 762.5 | 765.2 | 768.3 | 771.8 | 775.7 | 779.9 | 784.4 | 789.2
323.15 K, 15000 kPa | 764.8 | 766.9 | 769.6 | 772.7 | 776.1 | 779.9 | 783.9 | 788.3 | 793.1
323.15 K, 20000 kPa | 769 | 771.1 | 773.7 | 776.7 | 780.1 | 783.8 | 787.9 | 792.2 | 796.8
323.15 K, 30000 kPa | 776.9 | 779 | 781.6 | 784.4 | 787.7 | 791.2 | 795.2 | 799.3 | 803.9
323.15 K, 40000 kPa | 784.2 | 786.1 | 788.6 | 791.4 | 794.6 | 798.1 | 801.8 | 805.9 | 810.3
323.15 K, 50000 kPa | 790.8 | 792.8 | 795.1 | 797.9 | 801 | 804.4 | 808 | 812 | 816.3
323.15 K, 60000 kPa | 797.2 | 799 | 801.4 | 804.1 | 807 | 810.5 | 814 | 817.9 | 822.1
323.15 K, 70000 kPa | 802.9 | 804.6 | 806.9 | 809.6 | 812.6 | 815.8 | 819.3 | 823.2 | 827.3
323.15 K, 80000 kPa | 808.6 | 810.1 | 812.3 | 815 | 817.9 | 821.1 | 824.5 | 828.3 | 832.3
333.15 K, 100 kPa | 740.7 | 743 | 745.9 | 749.4 | 753.1 | 757.4 | 762.1 | 767 | 772.4
333.15 K, 1000 kPa | 741.7 | 744 | 746.9 | 750.3 | 754.1 | 758.4 | 763 | 767.9 | 773.3
333.15 K, 2000 kPa | 742.8 | 745.1 | 748 | 751.4 | 755.2 | 759.4 | 764 | 768.9 | 774.2
333.15 K, 5000 kPa | 746.1 | 748.3 | 751.1 | 754.5 | 758.2 | 762.4 | 766.9 | 771.8 | 777
333.15 K, 10000 kPa | 751.1 | 753.3 | 756.1 | 759.4 | 763 | 767.1 | 771.5 | 776.2 | 781.3
333.15 K, 15000 kPa | 755.9 | 758 | 760.8 | 764 | 767.5 | 771.5 | 775.8 | 780.4 | 785.4
333.15 K, 20000 kPa | 760.5 | 762.5 | 765.2 | 768.4 | 771.8 | 775.7 | 780 | 784.5 | 789.4
333.15 K, 30000 kPa | 768.9 | 770.8 | 773.4 | 776.4 | 779.8 | 783.6 | 787.6 | 792 | 796.7
333.15 K, 40000 kPa | 776.5 | 778.3 | 780.8 | 783.8 | 787 | 790.7 | 794.6 | 798.8 | 803.4
333.15 K, 50000 kPa | 783.5 | 785.2 | 787.7 | 790.6 | 793.7 | 797.2 | 801.1 | 805.2 | 809.7
333.15 K, 60000 kPa | 790 | 791.7 | 794.1 | 797 | 800.1 | 803.4 | 807.1 | 811.2 | 815.6
333.15 K, 70000 kPa | 796.1 | 797.7 | 800 | 802.9 | 805.8 | 809.2 | 812.9 | 816.8 | 821.2
333.15 K, 80000 kPa | 801.9 | 803.3 | 805.7 | 808.4 | 811.3 | 814.6 | 818.3 | 822.1 | 826.3
333.15 K, 90000 kPa | 807.3 | 808.7 | 810.9 | 813.7 | 816.5 | 819.8 | 823.3 | 827.2 | 831.3
333.15 K, 100000 kPa | 812.4 | 813.8 | 816 | 818.7 | 821.5 | 824.7 | 828.1 | 831.9 | 836

viscosity [mPa·s]
Conditions | x2 = 0 | x2 = 0.1073 | x2 = 0.1991 | x2 = 0.2998 | x2 = 0.4006 | x2 = 0.4997 | x2 = 0.6001 | x2 = 0.7001 | x2 = 0.7997 | x2 = 0.8996
323.15 K | 0.593 | 0.596 | 0.613 | 0.659 | 0.704 | 0.776 | 0.868 | 0.99 | 1.106 | 1.255
333.15 K | 0.522 | 0.522 | 0.535 | 0.565 | 0.605 | 0.657 | 0.723 | 0.8 | 0.889 | 1.011
